Laboratory results taken from ChEMBL document CHEMBL3046839, “Six insecticidal isoryanodane diterpenoids from the bark and twigs of Itoa orientalis” (2008).
In brackets after ≈: the same amount, converted by molar mass. Activity calls are given as the source filed them. The rule behind the calls is not given here.

What was measured:
BGC-823 = test: Cytotoxicity against Homo sapiens (human) BGC823 cells at 10 uM by MTT assay; type: functional, cell-based
Helicoverpa armigera = test: Insecticidal activity against Heliothis armigera larvae reared on artificial diet assessed as growth inhibition after 72 hr; type: functional, organism-based
HL-60 = test: Cytotoxicity against Homo sapiens (human) HL60 cells at 10 uM by MTT assay; type: functional, cell-based
Bel-7402 = test: Cytotoxicity against Homo sapiens (human) Bel7402 cells at 10 uM by MTT assay; type: functional, cell-based
KB = test: Cytotoxicity against Homo sapiens (human) KB cells at 10 uM by MTT assay; type: functional, cell-based
Spodoptera exigua [1] = test: Insecticidal activity against Spodoptera exigua larvae reared on artificial diet assessed as mortality rate at 32 ppm after 72 hr; type: functional
Spodoptera exigua [2] = test: Insecticidal activity against Spodoptera exigua larvae reared on artificial diet assessed as mortality rate after 72 hr; type: functional; details: for LC50: Spodoptera exigua, 72 h
Spodoptera exigua [3] = test: Insecticidal activity against Spodoptera exigua larvae reared on artificial diet assessed as mortality rate at 73.63 ppm after 72 hr; type: functional
Spodoptera exigua [4] = test: Insecticidal activity against Spodoptera exigua larvae reared on artificial diet assessed as mortality rate at 56.19 ppm after 72 hr; type: functional
Spodoptera exigua [5] = test: Insecticidal activity against Spodoptera exigua larvae reared on artificial diet assessed as mortality rate at 96.88 ppm after 72 hr; type: functional
Spodoptera exigua [6] = test: Insecticidal activity against Spodoptera exigua larvae reared on artificial diet assessed as mortality rate at 42.63 ppm after 72 hr; type: functional
Spodoptera exigua [7] = test: Insecticidal activity against Spodoptera exigua larvae reared on artificial diet assessed as mortality rate at 42.08 ppm after 72 hr; type: functional
Spodoptera exigua [8] = test: Insecticidal activity against Spodoptera exigua larvae reared on artificial diet assessed as mortality rate at 72.68 ppm after 72 hr; type: functional
Spodoptera exigua [9] = test: Insecticidal activity against Spodoptera exigua larvae reared on artificial diet assessed as mortality rate at 31.56 ppm after 72 hr; type: functional
Spodoptera exigua [10] = test: Insecticidal activity against Spodoptera exigua larvae reared on artificial diet assessed as mortality rate at 55.64 ppm after 72 hr; type: functional
Spodoptera exigua [11] = test: Insecticidal activity against Spodoptera exigua larvae reared on artificial diet assessed as mortality rate at 95.65 ppm after 72 hr; type: functional

SMILES | Activity (BGC-823) | growth inhibition (GI) (Helicoverpa armigera) | Activity (HL-60) | Activity (Bel-7402) | Activity (KB) | mortality at 32 ppm (Spodoptera exigua [1]) [%] | LC90 (Spodoptera exigua [2]) [µg/mL] | LC50 (Spodoptera exigua [2]) [µg/mL] | mortality at 73.63 ppm (Spodoptera exigua [3]) [%] | mortality at 56.19 ppm (Spodoptera exigua [4]) [%] | mortality at 96.88 ppm (Spodoptera exigua [5]) [%] | mortality at 42.63 ppm (Spodoptera exigua [6]) [%] | mortality at 42.08 ppm (Spodoptera exigua [7]) [%] | mortality at 72.68 ppm (Spodoptera exigua [8]) [%] | mortality at 31.56 ppm (Spodoptera exigua [9]) [%] | mortality at 55.64 ppm (Spodoptera exigua [10]) [%] | mortality at 95.65 ppm (Spodoptera exigua [11]) [%]
CC(CO[C@@H]1O[C@H](CO)[C@@H](O)[C@H](O)[C@H]1O)[C@@]1(O)[C@H](O)[C@@H]2[C@@]3(O)[C@@H]4O[C@@](O)(C[C@@]2(C)[C@@]2(O)CC[C@@H](C)[C@@H]42)[C@]31C (stereo partly specified) | inactive | inactive | inactive | inactive | inactive |  |  |  |  |  |  |  |  |  |  |  | 
CC(C)[C@@]1(O)[C@H](O)[C@@H]2[C@@]3(O)[C@@H]4O[C@@](O)(C[C@@]2(C)[C@@]2(O)CC[C@@H](C)[C@@H]42)[C@]31C [ITOL A] | inactive | inactive | inactive | inactive | inactive | 56 | 67.68 (≈ 184 µM) | 28.6 (≈ 77.7 µM) | 94 | 83 | 96 | 73 |  |  |  |  | 
CC(C)[C@@]1(O)[C@H](O[C@@H]2O[C@H](CO)[C@@H](O)[C@H](O)[C@H]2O)[C@@H]2[C@@]3(O)[C@@H]4O[C@@](O)(C[C@@]2(C)[C@@]2(O)CC[C@@H](C)[C@@H]42)[C@]31C | inactive | inactive | inactive | inactive | inactive |  |  |  |  |  |  |  |  |  |  |  | 
CC(C)[C@@]1(O)[C@H](O)[C@@H]2[C@@]3(O)[C@@H]4O[C@@](O)(C[C@@]2(C)[C@@]2(O)CC[C@](C)(O)[C@@H]42)[C@]31C |  | inactive |  |  |  |  |  |  |  |  |  |  |  |  |  |  | 
CC(CO)[C@@]1(O)[C@H](O)[C@@H]2[C@@]3(O)[C@@H]4O[C@@](O)(C[C@@]2(C)[C@@]2(O)CC[C@@H](C)[C@@H]42)[C@]31C (stereo partly specified) [ITOL B] |  | inactive |  |  |  |  | 131.7 (≈ 343 µM) | 52.8 (≈ 137 µM) |  |  |  |  | 31 | 69 | 26 | 59 | 77
C[C@@H]1CC[C@@]2(O)[C@@H]1[C@H]1O[C@@]3(O)C[C@]2(C)[C@@H]2[C@@H](O)[C@](O)(C(C)(C)O)[C@@]3(C)[C@]12O | inactive | inactive | inactive | inactive | inactive |  |  |  |  |  |  |  |  |  |  |  | 
